Laboratory results reported in patent US10179355B2, “Bioremediation enhancing agents and methods of use” (JRW BIOREMEDIATION, LLC, priority 2007, dated 2019).
“And” between values parts separate entries of the source, which are not always exact repeats. Equal values may be shown once.

Columns and labels:
Assay type in all cases: cell-based, Dehalococcoides and Dehalobacter spp.
[1] = test system: dechlorinating bacteria known to convert PCE to ethene; test: Set F: Additional Novel Bioremediation Amendments, PCE dechlorination microcosms; conditions: 44 days, nominally 1,000 mg/L
Experimental: (§1) The following components were used in the system for bioremediating contaminated ground water microcosms in Examples 2-8: • 160 milliliter (ml) stoppered serum bottles • 100 ml of anaerobic culture medium, groundwater containing an excess of bioavailable phosphorus and nitrogen at 0.5 mM Phosphate and 1 mM ammonium degassed with a nitrogen sparge • Nominally 1 gram of limestone • 19.54 micromoles (pmoles) Perchloroethene (PCE) • An excess of various electron donors were utilized • 3 ml of inoculum containing dechlorinating bacteria known to convert PCE to ethene.
Set F included microcosms that contained Sodium Gluconate and Sodium Erythorbate. They started at concentrations that were nominally 1,000 mg/L as compared with the sodium lactate control at 7 mM (784 mg/L).
The objective of this set was to characterize the ability of these two novel bioremediation electron donors to completely dechlorinate PCE and characterize the electron donor utilization efficiency as compared with sodium lactate.

[2] = test system: dechlorinating bacteria known to convert PCE to ethene; test: Set E: Relative Efficiency of Novel Bioremediation Amendments (electron donors), PCE dechlorination microcosms
Description: (§2) Sets B, C, D, E, and G further contain figures and tables showing results of the characterization of the Efficiency and the Relative Efficiency of electron donor usage. Efficiency may be defined as the percent of electron donor utilized for dechlorination, and may be calculated by dividing the pmoles of Chloride ion generated by the pmoles of electron donor consumed as measured by either Volatile Fatty Acid (VFA) analysis (Sets B, C, and G) or Chemical Oxygen Demand (COD) analysis (Set D and E). The Relative Efficiency of the electron donor utilization may be defined as the Efficiency of the Electron Donor divided by the Efficiency of the Lactate Control.
as §1
The fifth set tested a variety of different electron donors comparing Crude Glycerin, Sodium Citrate, Ethanol and Whey all charged at nominally 1,000 mg/L to lactate at 7 mM (784 mg/L).
The objective of the study was to test bioremediation amendments for efficacy as electron donors as well as to characterize their Efficiency for dechlorination as compared to the Lactate Control.

[3] = test system: dechlorinating bacteria known to convert PCE to ethene; test: Set G: Efficiency by VFA Analysis
Description: as §2
The method used to calculate the consumption of the electron donor measured the propionate, acetate and formate levels to calculate the consumption of electron donor over time. The lactate and propionate fermented very rapidly resulting in acetate and formate as the only measurable VFAs.
Set G contained microcosms that tested two different Yeast Metabolites (YM3 and YM4) and a Polysaccharide (PS1) for kinetics and efficiency of electron donor utilization using lactate and molasses as the electron donors. PS1 was also tested as an electron donor by itself.
Lactate at 11.2 mM (1,000 mg/L) and nutrient amendment at 1% of the electron donor levels (˜10 mg/L). Triplicate bottles received 2 micro liters of PCE and 2 ml of inoculum. The bottles were sampled 5 times over a 138 day period.

[4] = test system: dechlorinating bacteria known to convert PCE to ethene; test: Set G: Additional Yeast Metabolites and Polysaccharides as Nutrients, PCE dechlorination microcosms (kinetics, Relative Rate, paired t-test); conditions: bottles 1-3
Description: Certain contaminated materials (or sites) may contain indigenous microbial communities that are sufficient for complete bioremediation of contaminants. For such sites, there is no need to add microbes unless the indigenous microbes are genetically deficient in achieving the desired clean-up goals. For those sites that are microbiologically limited, microorganisms may be added to the contaminated materials (or sites). In one embodiment, the inoculum may be a mixed culture of halo-respiring bacteria that have been enriched to reach an optimal cell density. These mixed cultures of halo-respiring bacteria may be typically obtained from sediment samples from rivers, streams or any waterways. More specifically, the inoculum used in the Examples was originated from a Sangamon River sediment sample (Lodge Park, Piatt County, Ill.) See, e.g., Brennan, R. A., Sanford, R. A. and Werth, C. J. (2006). “Biodegradation of Tetrachloroethene by Chitin Fermentation Products in a Continuous Flow Column System.” Journal of Environ. Engr., June 665-673. This culture had grown for several years on PCE, anaerobic basal salts medium, Wolfe's vitamin solution and various electron donors including lactate (1-2 millimolar (mM)), formate (4 mM) and chitin using the Volatile Interface Transfer Apparatus (VITA) reactor system at the University of Illinois. Brennan, R. A., and Sanford, R. A. (2002). “Continuous steady-state method using Tenax for delivering tetrachloroethene to chlororespiring bacteria.” Appl. Environ. Microbiol., 68(3), 1464-1467. […] Using 16S rRNA gene-specific primers, both Dehalococcoides and Dehalobacter spp. were detected. Quantitative real-time PCR has been used to determine that approximately 1.65×10^7 Dehalococcoides gene copies were present per ml of culture.
For purpose of this disclosure, each bottle may be started with a certain amount of PCE. At subsequent times each bottle may be sampled for the degradation daughter products of PCE, namely trichloroethene (TCE), cis-dichloroethene (DCE), vinyl chloride (VC) and ethene, etc. Trans-DCE and 1,1-DCE are also daughter products of PCE, but they may not be detectable under the conditions disclosed here.
The rate of degradation may be determined by calculating the number of pmoles of chloride ions removed from PCE and subsequently from the amounts of the daughter products generated. The calculation may be performed as follows: Chloride (μmoles)=[…]−4×PCE (μmoles)−3×TCE (pmoles)−2×DCE (μmoles)−VC (μmoles)
The alternative chloride calculation is: Chloride (μmoles)=TCE (μmoles)+2×DCE (μmoles)+3×VC (μmoles)+4×Ethene (μmoles)
Next, the dechlorination rate may be determined for each bottle at each time by dividing the Chloride generated by the time (days). The data may be then normalized to the lactate control by taking the ratio of Chloride Rate (pmoles/day) and the Lactate Control Chloride Rate (pmoles/day). This ratio is called Relative Rate and is dimensionless.
As shown in the Examples, a paired t-test has been conducted to calculate the probability that the Relative Rate of one group (i.e. with Nutrient) is greater than the other group (i.e. without Nutrient). The null hypothesis is that the underlying means of the two paired groups are equal. The Probability that one group has higher Relative Rates than the other group is shown in various tables in the Examples.
as §1, with “ethene. […]” for “ethene.”

Compound: O=C1O[C@H]([C@H](O)CO)C([O-])=C1O.[Na+] [Na-Erythorbate, Sodium Erythorbate]
- Ethene generation (in words) [1]: starting to generate Ethene

Compound: O=C([O-])[C@H](O)[C@@H](O)[C@H](O)[C@H](O)CO.[Na+] [Na-Gluconate, Sodium Gluconate]
- Ethene generation (in words) [1]: starting to generate Ethene

Compound: O=C([O-])CC(O)(CC(=O)[O-])C(=O)[O-].[Na+].[Na+].[Na+] [Sodium Citrate]
- ability to dechlorinate PCE (in words) [2]: ability to completely dechlorinate PCE
- dechlorination speed compared to Lactate Control / other amendments (in words) [2]: almost as fast
- efficient as the Lactate Control (Relative Efficiency) ([2]; electron donor nominally 1,000 mg/L vs lactate 7 mM): 84%

Compound: inulin [PS1]
- Estimated % Efficiency ([3]; e^- used dechlorination / e^- used donor): 0.283%
- Relative Efficiency ([3]; relative to Lactate Control = 100%): 5%
- Relative Rate ([4]; time 35 days): 0.03 and 0.04 and 0.05
- Relative Rate ([4]; time 50 days): 0.02 and 0.01 (2×)
- Relative Rate ([4]; time 79 days): 0.03 and 0.04 and 0.02
- Relative Rate ([4]; time 138 days): 0.00
